Assay results published in publication PMC10459838 (Veterinary Sciences, 2023).
Read-outs that look alike come from different tables or passages of the source.

How the values were obtained:
[1] = tested on: FIPV serotype II strain (WSU-79-1146); assay: Antiviral efficacy against FIPV replication in CRFK cells, viral load by qRT-PCR; format: cell-based, feline infectious peritonitis virus; conditions: for Selectivity index (SI) = (mean CC50)/(mean EC50): against FIPV in CRFK cells; for Viral load (FIPV RNA copies) / FIPV viral copies with GS441524: GS441524 25 µM; for Viral load (FIPV RNA copies): inoculum […] 10^4 TCID50/mL
CRFK cells [2] = conditions: 48 h
CRFK cells [3] = assay: Cell viability assay (MTT, Cell Proliferation Kit I); format: cell-based, feline
Experimental: (§1) The Crandell-Reese feline kidney (CRFK) cells utilized in this study were purchased from American Type Culture Collection (ATCC, Manassas, VA, USA), and cultured in Eagle’s Minimum Essential Medium (EMEM) medium supplemented with 10% fetal bovine serum (FBS), 1% antibiotics (penicillin and streptomycin), and 1% non-essential amino acids. The reagents were obtained from ATCC. The CRFK cells were incubated at 37 °C with 5% CO2.
(§2) The cell viability of CRFK cells was measured using a Cell Proliferation Kit I (MTT) (Roche Applied Science, Indianapolis, IN, USA), following the manufacturer’s instructions. […] After incubation for 48 h, 10 μL of MTT solution (0.5 mg/mL in phosphate-buffered saline) was added to each well. The plate was incubated for 4 h at 37 °C to allow the formation of formazan crystals. Following incubation, 1% sodium dodecyl sulfate (100 μL) solution was added to dissolve the crystals.

[4] = as above; format: cell-based, feline; conditions: cat
Experimental: as §1, §2

COVID-19 = tested on: COVID-19; parameters: method as in PMID 34933447; conditions: co-administered with ritonavir within 3 to 5 days of COVID-19 symptom onset; cited from earlier work
FIPV = tested on: FIPV; parameters: method as in earlier work; conditions: ref 39 (Jiao, Yan et al.); cited from earlier work
[5] = Alphacoronavirus 1, CRFK, 48 h, CRFK cells, FIPV […] 10^4 TCID50/mL, 48 h, qRT-PCR, read-out: 50% effective concentration (EC50) against FIPV replication
[6] = CRFK cells, FIPV […] 10^4 TCID50/mL, 48 h, qRT-PCR, read-out: 50% effective concentration (EC50) against FIPV replication
[7] = CRFK cells treated with drugs for 48 h, MTT assay (Figure 5), read-out: 50% cytotoxic concentration (CC50)
[8] = CRFK cells (Crandell-Reese feline kidney), CRFK cells treated with drugs for 48 h, MTT assay (Figure 5), read-out: 50% cytotoxic concentration (CC50)

SMILES: CC(C)C(=O)OC[C@H]1O[C@@H](n2ccc(NO)nc2=O)[C@H](O)[C@@H]1O [Molnupiravir]
- EC50 [1, 5]: 8 µM
- EC50 [1, 6]: 8.04 µM
- Selectivity index (SI) = (mean CC50)/(mean EC50) [1]: 29.3
- Selectivity index (SI) = (mean CC50)/(mean EC50) ([1]; listed as molnupiravir): 29.27
- Highest concentration with essentially no cytotoxicity (CRFK cells [2]; CRFK cells, CellTox Green): 63 µM
- CC50 (CRFK cells [3]; [7]): 235 µM
- Concentration as high as which the drug could be used safely with minimal cytotoxicity (CRFK cells [3]; CRFK cells, 48 h, MTT staining): 63 µM
- CC50 at 48 h [4, 8]: 235 µM

SMILES: C/C(O)=C(\C#N)C(=O)Nc1ccc(C(F)(F)F)cc1 [Teriflunomide]
- EC50 [1, 5]: 49.6 µM
- Highest concentration with essentially no cytotoxicity (CRFK cells [2]; cat): 63 µM
- Concentration as high as which the drug could be used safely with minimal cytotoxicity (CRFK cells [3]; CRFK cells, 48 h, MTT staining): 62.5 µM
- CC50 at 48 h [4, 8]: 134 µM

SMILES: CC(C)c1nc(CN(C)C(=O)N[C@H](C(=O)N[C@@H](Cc2ccccc2)C[C@H](O)[C@H](Cc2ccccc2)NC(=O)OCc2cncs2)C(C)C)cs1 [Ritonavir]
- Cytopathic effects (CPEs) in FIPV-infected cells ([1]; 5 µM, 10-fold dilutions): induced CPEs
- Cytopathic effects (CPEs) in FIPV-infected cells ([1]; 50 µM, 10-fold dilutions): induced CPEs
- EC50 [1, 5]: 17.6 µM
- Highest concentration with essentially no cytotoxicity (CRFK cells [2]; cat): 16 µM
- Lowest concentration at which cytotoxicity was observed (CRFK cells [2]; cat): 31 µM
- Concentration as high as which the drug could be used safely with minimal cytotoxicity (CRFK cells [3]; cat, 48 h): 16 µM

SMILES: N#C[C@@]1(c2ccc3c(N)ncnn23)O[C@H](CO)[C@@H](O)[C@H]1O [GS441524, GS-441524]
- Cytopathic effects (CPEs) in FIPV-infected cells ([1]; 0.5 µM, 10-fold dilutions): no CPEs observed in cells
- Reduction in FIPV copy number ([1]; 0.98 µM, two-fold dilutions, 48 hpi): 22.5%
- Lowest concentration with anti-FIPV efficacy compared to no-drug group ([1]; 10-fold dilutions, 48 hpi): 0.5 µM
- EC50 [1, 5]: 1.57 µM
- inhibition at 0.5 µM ([1]; Alphacoronavirus 1, CRFK, 0.5 µM, 10-fold dilutions, 48 hpi): 85%
- inhibition at […] ([1]; Alphacoronavirus 1, CRFK, 7.8 µM, two-fold dilutions, 48 hpi): 98.3%
- EC50 [1, 6]: 1.6 µM
- Viral load (FIPV RNA copies) ([1]; 0 hpi (applied at inoculation, remained), 24 h): 2.58 × 10^4 per ml
- Viral load (FIPV RNA copies) ([1]; 0 hpi, 48 h): 1.97 × 10^4 per ml
- Viral load (FIPV RNA copies) ([1]; 0 hpi, 72 h): 2.04 × 10^4 per ml
- Viral load (FIPV RNA copies) ([1]; +1 hpi (applied 1 h post inoculation), 24 h): 2.84 × 10^4 per ml
- Viral load (FIPV RNA copies) ([1]; +1 hpi, 48 h): 1.52 × 10^4 per ml
- Viral load (FIPV RNA copies) ([1]; +1 hpi, 72 h): 1.39 × 10^4 per ml
- FIPV viral copies with GS441524 ([1]; FIPV inoculum […] 10^2 TCID50/mL, 48 h): 4.60 × 10^1 per ml
- FIPV viral copies with GS441524 ([1]; FIPV inoculum […] 10^2 TCID50/mL, 72 h): 2.36 × 10^1 per ml
- FIPV viral copies with GS441524 ([1]; FIPV inoculum […] 10^3 TCID50/mL, 48 h): 3.48 × 10^2 per ml
- FIPV viral copies with GS441524 ([1]; FIPV inoculum […] 10^3 TCID50/mL, 72 h): 2.09 × 10^2 per ml
- FIPV viral copies with GS441524 ([1]; FIPV inoculum […] 10^4 TCID50/mL, 48 h): 2.76 × 10^3 per ml
- FIPV viral copies with GS441524 ([1]; FIPV inoculum […] 10^4 TCID50/mL, 72 h): 3.24 × 10^3 per ml
- Viral load (FIPV RNA copies) ([1]; −2 & +1 hpi (applied 2 h before, removed, applied again at 1 hpi), 24 h): 2.47 × 10^4 per ml
- Viral load (FIPV RNA copies) ([1]; −2 hpi (applied 2 h before inoculation, removed before inoculation), 24 h): 1.97 × 10^4 per ml
- Viral load (FIPV RNA copies) ([1]; −2 hpi, 48 h): 2.94 × 10^5 per ml
- Viral load (FIPV RNA copies) ([1]; −2 hpi, 72 h): 6.89 × 10^6 per ml
- Lowest concentration with antiviral efficacy ([1]; two-fold dilutions, 48 hpi): 0.98 µM
- CC50 (CRFK cells [3]; [7]): 260 µM
- CC50 at 48 h [4, 7]: 260 µM

SMILES: N#CC[C@H](C1CCCC1)n1cc(-c2ncnc3[nH]ccc23)cn1 [Ruxolitinib]
- EC50 ([1]; Alphacoronavirus 1, CRFK, 48 h, read-out: 50% effective concentration (EC50) against FIPV replication): 43.6 µM
- Lowest concentration at which cytotoxicity was observed (CRFK cells [2]; CRFK cells, cytotoxicity assay): 250 µM
- CC50 (CRFK cells [3]; cat, 48 h): 338 µM
- CC50 at 48 h ([4]; 50% cytotoxic concentration (CC50)): 338 µM

SMILES: CC(C)(C)[C@H](NC(=O)C(F)(F)F)C(=O)N1C[C@H]2[C@@H]([C@H]1C(=O)N[C@H](C#N)C[C@@H]1CCNC1=O)C2(C)C [Nirmatrelvir]
- Reduction in hospitalizations and death (COVID-19): 89%
- EC50 (FIPV): 2.52 µM
- Cytopathic effects (CPEs) in FIPV-infected cells ([1]; 5 µM, 10-fold dilutions): no CPEs in cells
- EC50 ([1]; Alphacoronavirus 1, CRFK, 48 h, read-out: 50% effective concentration (EC50) against FIPV replication, CRFK cells, FIPV […] 10^4 TCID50/mL, 48 h, qRT-PCR): 2.46 µM
- inhibition at 5 µM ([1]; Alphacoronavirus 1, CRFK, read-out: Inhibition of FIPV replication): 80%
- Selectivity index (SI) = (mean CC50)/(mean EC50) [1]: 113.7
- Selectivity index (SI) = (mean CC50)/(mean EC50) ([1]; listed as nirmatrelvir): 113.67
- EC50 ([1]; read-out: 50% effective concentration (EC50) against FIPV replication, CRFK cells, FIPV […] 10^4 TCID50/mL, 48 h, qRT-PCR): 2.5 µM
- Highest concentration with essentially no cytotoxicity (CRFK cells [2]; CRFK cells, CellTox Green): 63 µM
- Concentration as high as which the drug could be used safely with minimal cytotoxicity (CRFK cells [3]; CRFK cells, 48 h, MTT staining): 63 µM
- CC50 at 48 h [4, 7]: 279 µM
